Results: US10675360B2 (MADRIGAL PHARMACEUTICALS, INC., priority 2014, dated 2020)

Test: Stability in mouse plasma
Type: in vitro ADME
Conditions: 1 h

Structure (SMILES)	% Remaining (mouse, plasma, 10 μM) [%]	% Remaining (mouse plasma, 37° C.) [%]
CCc1c2c(nc3ccc(O)cc13)-c1cc3c(c(=O)n1C2)COC(=O)C3(CC)OC(=O)CN1CCN(c2ccc(-n3c(O)nnc3-c3cc(C(C)C)c(O)cc3O)cc2)CC1 (stereo not shown) [SDC-TRAP-0056, 4,11-diethyl-9-hydroxy-3,14-dioxo-3,4,12,14-tetrahydro-1H-pyrano[3′,4′: 6,7]indolizino[1,2-b]quinolin-4-yl 2-(4-(4-(3-(2,4-dihydroxy-5-isopropylphenyl)-5-hydroxy-4H-1,2,4-triazol-4-yl)phenyl)piperazin-1-yl)acetate]	–	78
CCc1c2c(nc3ccc(O)cc13)-c1cc3c(c(=O)n1C2)COC(=O)[C@@]3(CC)OC(=O)N1CCC(CCn2ccc3cc(-n4c(O)nnc4-c4cc(C(C)C)c(O)cc4O)ccc32)CC1 [SDC-TRAP-0064, (S)-4,11-diethyl-9-hydroxy-3,14-dioxo-3,4,12,14-tetrahydro-1H-pyrano[3′,4′:6,7]indolizino[1,2-b]quinolin-4-yl 4-(2-(5-(3-(2,4-dihydroxy-5-isopropylphenyl)-5-hydroxy-4H-1,2,4-triazol-4-yl)-1H-indol-1-yl)ethyl)piperidine-1-carboxylate]	–	91.5
CCc1c2c(nc3ccc(O)cc13)-c1cc3c(c(=O)n1C2)COC(=O)C3(CC)OC(=O)CN1CCC(Cc2ccc(-n3c(O)nnc3-c3cc(C(C)C)c(O)cc3O)cc2)CC1 (stereo not shown) [SDC-TRAP-0071, 4,11-diethyl-9-hydroxy-3,14-dioxo-3,4,12,14-tetrahydro-1H-pyrano[3′,4′:6,7]indolizino[1,2-b]quinolin-4-yl 2-(4-(4-(3-(2,4-dihydroxy-5-isopropylphenyl)-5-hydroxy-4H-1,2,4-triazol-4-yl)benzyl)piperidin-1-yl)acetate]	–	102
CCc1c2c(nc3ccc(O)cc13)-c1cc3c(c(=O)n1C2)COC(=O)[C@@]3(CC)OC(=O)N1CCC(CCc2ccc(-n3c(O)nnc3-c3cc(C(C)C)c(O)cc3O)cc2)CC1 [SDC-TRAP-0104, (S)-4,11-diethyl-9-hydroxy-3,14-dioxo-3,4,12,14-tetrahydro-1H-pyrano[3′,4′:6,7]indolizino[1,2-b]quinolin-4-yl 4-(4-(3-(2,4-dihydroxy-5-isopropylphenyl)-5-hydroxy-4H-1,2,4-triazol-4-yl)phenethyl)piperidine-1-carboxylate]	–	95.5
CCNC(=O)c1nnc(-c2cc(C(C)C)c(O)cc2O)n1-c1ccc(Oc2ccc(N(C)C(=O)Oc3ccc4nc5c(c(CC)c4c3)Cn3c-5cc4c(c3=O)COC(=O)[C@]4(O)CC)cc2)cc1 [SDC-TRAP-0145, (S)-4,11-diethyl-4-hydroxy-3,14-dioxo-3,4,12,14-tetrahydro-1H-pyrano[3′,4′:6,7]indolizino[1,2-b]quinolin-9-yl (4-(4-(3-(2,4-dihydroxy-5-isopropylphenyl)-5-(ethylcarbamoyl)-4H-1,2,4-triazol-4-yl)phenoxy)phenyl)(methyl)carbamate]	–	14.1
CC(C)c1cc(-c2nnc(O)n2-c2ccc(CN3CCN(C(=O)Oc4ccc(COC(=O)Nc5cccc6c5CN(C5CCC(=O)NC5=O)C6=O)cc4)CC3)c(F)c2)c(O)cc1O (stereo not shown) [SDC-TRAP-0171, 4-((((2-(2,6-dioxopiperidin-3-yl)-1-oxoisoindolin-4-yl)carbamoyl)oxy)methyl)phenyl-4-(4-(3-(2,4-dihydroxy-5-isopropylphenyl)-5-hydroxy-4H-1,2,4-triazol-4-yl)-2-fluorobenzyl)piperazine-1-carboxylate]	17.7	–
CCNC(=O)c1nnc(-c2cc(C(C)C)c(O)cc2O)n1-c1ccc(CN2CCC(C(=O)N3CCC(N(C)C(=O)Oc4ccc5nc6c(c(CC)c5c4)Cn4c-6cc5c(c4=O)COC(=O)C5(O)CC)CC3)CC2)cc1 (stereo not shown) [SDC-TRAP-0172, 4,11-diethyl-4-hydroxy-3,14-dioxo-3,4,12,14-tetrahydro-1H-pyrano[3′,4′:6,7]indolizino[1,2-b]quinolin-9-yl (1-(1-(4-(3-(2,4-dihydroxy-5-isopropylphenyl)-5-(ethylcarbamoyl)-4H-1,2,4-triazol-4-yl)benzyl)piperidine-4-carbonyl)piperidin-4-yl)(methyl)carbamate]	–	74.7
CCNC(=O)c1nnc(-c2cc(C(C)C)c(O)cc2O)n1-c1ccc(C(=O)N2CCN(c3cc(C)c(OC(=O)Nc4cccc5c4CN(C4CCC(=O)NC4=O)C5=O)c(C)c3)CC2)cc1 (stereo not shown) [SDC-TRAP-0178, 4-(4-(4-(3-(2,4-dihydroxy-5-isopropylphenyl)-5-(ethylcarbamoyl)-4H-1,2,4-triazol-4-yl)benzoyl)piperazin-1-yl)-2,6-dimethylphenyl (2-(2,6-dioxopiperidin-3-yl)-1-oxoisoindolin-4-yl)carbamate]	82.0	–
CCNC(=O)c1nnc(-c2cc(C(C)C)c(O)cc2O)n1-c1ccc(Oc2ccc(C(=O)N3CCC(N(C)C(=O)Oc4ccc5nc6c(c(CC)c5c4)Cn4c-6cc5c(c4=O)COC(=O)C5(O)CC)CC3)cc2)cc1 (stereo not shown) [SDC-TRAP-0180, 4,11-Diethyl-4-hydroxy-3,14-dioxo-3,4,12,14-tetrahydro-1H-pyrano[3′,4′:6,7]indolizino[1,2-b]quinolin-9-yl (1-(4-(4-(3-(2,4-dihydroxy-5-isopropylphenyl)-5-(ethylcarbamoyl)-4H-1,2,4-triazol-4-yl)phenoxy)benzoyl)piperidin-4-yl)(methyl)carbamate]	–	72.4

Continued, in another order:

% Remaining (mouse, plasma, 10 μM) [%]	Structure (SMILES)	% Remaining (mouse plasma, 37° C.) [%]
85.9	COc1cc(O)c(-c2nnc(C(=O)NC(C)C)n2-c2ccc(CN3CCC(C(=O)Nc4cccc5c4CN(C4CCC(=O)NC4=O)C5=O)CC3)cc2)cc1C(C)C (stereo not shown) [SDC-TRAP-0115, N-(2-(2,6-dioxopiperidin-3-yl)-1-oxoisoindolin-4-yl)-1-(4-(3-(2-hydroxy-5-isopropyl-4-methoxyphenyl)-5-(isopropylcarbamoyl)-4H-1,2,4-triazol-4-yl)benzyl)piperidine-4-carboxamide]	–
89.1	CC(C)c1cc(-c2nnc(O)n2-c2ccc(CN3CCN(C(=O)COC(=O)Nc4cccc5c4CN(C4CCC(=O)NC4=O)C5=O)CC3)cc2)c(O)cc1O (stereo not shown) [SDC-TRAP-0121, 2-(4-(4-(3-(2,4-dihydroxy-5-isopropylphenyl)-5-hydroxy-4H-1,2,4-triazol-4-yl)benzyl)piperazin-1-yl)-2-oxoethyl(2-(2,6-dioxopiperidin-3-yl)-1-oxoisoindolin-4-yl)carbamate]	–
112	CCNC(=O)c1nnc(-c2cc(C(C)C)c(O)cc2O)n1-c1ccc(CN2CCC(C(=O)N3CCC(COC(=O)Nc4cccc5c4CN(C4CCC(=O)NC4=O)C5=O)CC3)CC2)cc1 (stereo not shown) [SDC-TRAP-0124, (1-(1-(4-(3-(2,4-Dihydroxy-5-isopropylphenyl)-5-(ethylcarbamoyl)-4H-1,2,4-triazol-4-yl)benzyl)piperidine-4-carbonyl)piperidin-4-yl)methyl (2-(2,6-dioxopiperidin-3-yl)-1-oxoisoindolin-4-yl)carbamate]	–
99.4	CCNC(=O)c1nnc(-c2cc(C(C)C)c(O)cc2O)n1-c1ccc(Oc2ccc(C(=O)N3CCC(COC(=O)Nc4cccc5c4CN(C4CCC(=O)NC4=O)C5=O)CC3)cc2)cc1 (stereo not shown) [SDC-TRAP-0125, (1-(4-(4-(3-(2,4-Dihydroxy-5-isopropylphenyl)-5-(ethylcarbamoyl)-4H-1,2,4-triazol-4-yl)phenoxy)benzoyl)piperidin-4-yl)methyl (2-(2,6-dioxopiperidin-3-yl)-1-oxoisoindolin-4-yl)carbamate]	–
87.3	CC(C)c1cc(-c2nnc(O)n2-c2ccc(CC(=O)N(C)CCOC(=O)Nc3cccc4c3CN(C3CCC(=O)NC3=O)C4=O)cc2)c(O)cc1O (stereo not shown) [SDC-TRAP-0127, 2-(2-(4-(3-(2,4-dihydroxy-5-isopropylphenyl)-5-hydroxy-4H-1,2,4-triazol-4-yl)phenyl)-N-methylacetamido)ethyl(2-(2,6-dioxopiperidin-3-yl)-1-oxoisoindolin-4-yl)carbamate]	–
98.1	CCNC(=O)c1nnc(-c2cc(C(C)C)c(O)cc2O)n1-c1ccc(C(=O)N(C)CC(=O)Nc2cccc3c2CN(C2CCC(=O)NC2=O)C3=O)cc1 (stereo not shown) [SDC-TRAP-0147, 5-(2,4-dihydroxy-5-isopropylphenyl)-4-(4-((2-((2-(2,6-dioxopiperidin-3-yl)-1-oxoisoindolin-4-yl)amino)-2-oxoethyl)(methyl)carbamoyl)phenyl)-N-ethyl-4H-1,2,4-triazole-3-carboxamide]	–
90.3	CC(C)c1cc(-c2nnc(O)n2-c2ccc(N3CCN(C(=O)c4ccc(COC(=O)Nc5cccc6c5CN(C5CCC(=O)NC5=O)C6=O)cc4)CC3)cc2)c(O)cc1O (stereo not shown) [SDC-TRAP-0156, 4-(4-(4-(3-(2,4-Dihydroxy-5-isopropylphenyl)-5-hydroxy-4H-1,2,4-triazol-4-yl)phenyl)piperazine-1-carbonyl)benzyl (2-(2,6-dioxopiperidin-3-yl)-1-oxoisoindolin-4-yl)carbamate]	–
81.4	CC(C)c1cc(-c2nnc(O)n2-c2ccc(CN3CCN(C(=O)c4ccc(COC(=O)Nc5cccc6c5CN(C5CCC(=O)NC5=O)C6=O)cc4)CC3)c(F)c2)c(O)cc1O (stereo not shown) [SDC-TRAP-0157, 4-(4-(4-(3-(2,4-dihydroxy-5-isopropylphenyl)-5-hydroxy-4H-1,2,4-triazol-4-yl)-2-fluorobenzyl)piperazine-1-carbonyl)benzyl (2-(2,6-dioxopiperidin-3-yl)-1-oxoisoindolin-4-yl)carbamate]	–
93.0	CCNC(=O)c1nnc(-c2cc(C(C)C)c(O)cc2O)n1-c1ccc(CN2CCC(C(=O)N[C@H](C(=O)Nc3cccc4c3CN(C3CCC(=O)NC3=O)C4=O)C(C)C)CC2)cc1 (stereo partly drawn) [SDC-TRAP-0163, 1-(4-(3-(2,4-dihydroxy-5-isopropylphenyl)-5-(ethylcarbamoyl)-4H-1,2,4-triazol-4-yl)benzyl)-N-((2S)-1-((2-(2,6-dioxopiperidin-3-yl)-1-oxoisoindolin-4-yl)amino)-3-methyl-1-oxobutan-2-yl)piperidine-4-carboxamide]	–
98.0	CCNC(=O)c1nnc(-c2cc(C(C)C)c(O)cc2O)n1-c1ccc(CN2CCC(C(=O)N3CCC[C@H]3C(=O)Nc3cccc4c3CN(C3CCC(=O)NC3=O)C4=O)CC2)cc1 (stereo partly drawn) [SDC-TRAP-0164, 5-(2,4-dihydroxy-5-isopropylphenyl)-4-(4-((4-((2S)-2-((2-(2,6-dioxopiperidin-3-yl)-1-oxoisoindolin-4-yl)carbamoyl)pyrrolidine-1-carbonyl)piperidin-1-yl)methyl)phenyl)-N-ethyl-4H-1,2,4-triazole-3-carboxamide]	–
